Source: US3972991A, “Radioisotopic assay and binder therefor” (priority 1974, dated 1976)
Structures can show the parent of a compound that is named as a salt. Values belong to the molecule of their own block, whether it stands above or below them.

Legend:
hog kidney binder factor [1] = assay: effect of enzymes, pH, ions, chelators, denaturants and other agents on binding of 3H-PGA to hog kidney binder; details: for effect on binding activity of the binder composition: before complex formation
hog kidney binder = assay: direct binding studies with labeled folates on hog kidney binder
storage stability = format: physicochemical
Method: The standard or known folate (d,1,L-5-methyltetrahydrofolic acid) (Sigma Chemical) is dissolved in 0.05 M potassium phosphate buffer pH 7.6 and then brought to 0.1 M with 2-mercapto-ethanol. Here the mercapto-alcohol acts as a stabilizer for the folate or folic acid.
High specific activity ^3 H-PGA (15-50 Ci/m mole; Amersham Searle) is conveniently utilized as the tracer or labeled compound. It is dissolved in 20% ethanol and stored at -80°C. For use in the assay, the stock solution is diluted 1:100 in potassium phosphate buffer (0.05 M pH 7.6).
Finely divided activated charcoal coated with albumin is prepared by mixing equal volumes of a 5% powdered activated charcoal (Norit A) suspension (w/v, in distilled water) and a 1% aqueous solution of bovine albumin (Fraction V of Cohn).
Blood to be assayed for folate is obtained by venapuncture and allowed to clot at room temperature. The serum is collected by centrifugation and 5 milligrams of ascorbic acid per milliliter of serum is added.

hog kidney binder factor [2] = assay: rate of PGA binder complex formation and dissociation; format: binding; details: for initial rate of binding: 3H-PGA approximately 20% excess
Method: The rate of PGA binder complex formation with hog kidney binder factor was determined at several temperatures by equilibrating solutions of the binder and of ^3 H-PGA at the appropriate temperature and then combining aliquots of each such that the ^3 H-PGA was in approximately 20% excess to the binding capacity of the hot kidney binder factor composition. The reaction was terminated by the addition of 1.0 ml of ice cold suspension of powdered activated charcoal coated with albumin.

hog kidney folate binder = assay: direct competition for PGA binding sites in hog kidney folate binder (FIG. 6A)
Method: The reaction was started by addition of folate binder and allowed to proceed for 30 minutes at room temperature in the dark. The reaction was stopped by placing the tubes on ice and adding 1.0 ml of a suspension of powdered activated charcoal coated with albumin. After 2 to 3 minutes on ice, the tubes were centrifuged at 6000 × G for 10 minutes at 4°C to remove the charcoal absorbed "free" folate. 1.0 ml of the clear supernatant fluid which contained the folate/binder complex was counted by liquid scintillation spectroscopy according to known procedures. Charcoal controls prepared by substituting buffer for binder in one series of tubes were prepared to determine the number of counts not removed by the charcoal. Percent maximum binding was calculated by the formula [formula]

hog kidney binder factor [3] = assay: sequential addition of unlabeled folate derivatives and 3H-PGA, displacement (FIG. 6B); format: binding; details: PGA curve of FIG. 6B
Method: The binding conditions were similar to those used in obtaining the data appearing in FIG. 6A except that 3 pmoles of ^3 H-PGA was added to the reaction containing enough binder factor to bind about 2.5 pmoles of PGA. The binder was preincubated for 30 minutes in the dark at room temperature with unlabeled folate derivatives as indicated. Then the ^3 H-PGA was added and the reaction allowed to continue for an additional 30 minutes and then stopped and counted as in obtaining the data for FIG. 6A.
The calculated curve of FIG. 6B depicts the relationship to be expected by balancing on a molar basis the binding capacity of the hog kidney binder factor with the known pmoles of folate analog added in the absence of any displacement. […] The hog kidney binder factor thus differs from other high affinity folate binder factors such as those found in milk and in serum and in leukocytes of some patients with chronic granulocytic leukemia.

All other binder factors = assay: inactivation of other binder factors by trypsin; format: binding; details: trypsin solution 1:250, 1 mg/ml
Method: Preincubating a 1.0 ml aliquot of binder extract from hog kidney having a binding capacity of 25 ng PGA/ml, with 1.0 ml RNase (Worthington, 2 micrograms per ml) or with DNase I (Worthington 2 micrograms per ml) for 30 minutes at 37°C had no effect on the binding of ^3 H-PGA. […] All other binder factors are inactivated by a trypsin solution 1:250, 1 mg/ml.

Molecule: NC(N)=O [urea]
effect on folate binder complex after it had formed (hog kidney binder factor [1]; 8 M): no effect | effect on binding activity of the binder composition (hog kidney binder factor [1]; 8 M): binding activity was lost

Molecule: [Zn] [zinc]
effect on binding at any pH (hog kidney binder factor [1]; 5 mM): No effect

Molecule: O=C(O)CN(CCN(CC(=O)O)CC(=O)O)CC(=O)O [EDTA, ethyldiamine tetraacetic acid]
effect on binding at any pH (hog kidney binder factor [1]; 20 mM): No effect

Molecule: [Ca+2] [calcium]
effect on binding at any pH (hog kidney binder factor [1]; 5 mM): No effect

Molecule: [Mg+2] [magnesium]
effect on binding at any pH (hog kidney binder factor [1]; 5 mM): No effect

binding results compared with those obtained with 3H-PGA (hog kidney binder): essentially the same | bound by the extract, of the available labeled folate (hog kidney binder): more than 90%
Molecule: [14CH3]N1c2c([nH]c(N)nc2=O)NCC1CNc1ccc(C(=O)N[C@@H](CCC(=O)O)C(=O)O)cc1 (stereo partly shown) [^14 C--5CH3 FH4]

stability (storage stability): unstable | initial rate of binding (hog kidney binder factor [2]; 4°C): about 0.65 % per second | initial rate of binding (hog kidney binder factor [2]; 21°C): 1.3 % per second | initial rate of binding (hog kidney binder factor [2]; 37°C): 2.5 % per second
Molecule: ^3 H-pteroylmonoglutamate [^3 H-PGA]
disassociation of the 3H-PGA binder complex (hog kidney binder factor [2]; one hour at 37°C, 50-fold excess of unlabeled PGA): no significant disassociation

competition for PGA binding sites (hog kidney folate binder): high degree of competition
Molecule: Nc1nc2c(c(=O)[nH]1)NC(CNc1ccc(C(=O)N[C@@H](CCC(=O)O)C(=O)O)cc1)CN2 (stereo partly shown) [d, 1-tetrahydrofolic acid]

binding affinity less than that of 3H-PGA (hog kidney binder; direct binding, 3H-MTX 13 Ci/mmole): at least 500 times
Molecule: CN(Cc1cnc2nc(N)nc(N)c2n1)c1ccc(C(=O)N[C@@H](CCC(=O)O)C(=O)O)cc1 [^3 H-MTX, ^3 H-methotrexate]

Molecule: N=C(N)N [guanidine hydrochloride]
effect on folate binder complex after it had formed (hog kidney binder factor [1]; 6 M): could disrupt the complex | reversibility of the guanidine hydrochloride effect (hog kidney binder factor [1]; 6 M): nearly completely reversible | effect on binding activity of the binder composition (hog kidney binder factor [1]; 6 M): binding activity was lost

Molecule: CN1c2c(nc(N)[nH]c2=O)NCC1CNc1ccc(C(=O)N[C@@H](CCC(=O)O)C(=O)O)cc1 (stereo partly shown) [5CH3 FH4, d,1,5-methyltetrahydrofolic acid]
stability of stock solution (storage stability; approximately 5 micrograms per ml, 0.1 M 2-mercaptoethanol, pH 7.6, -80°C): at least 6 months | amount required to achieve 50% inhibition of 3H-PGA binding (hog kidney folate binder; FIG. 6A, 0.225 pmoles 3H-PGA, pH 7.6, total volume 1.0 ml, 30 min room temperature): about 0.32 pmoles | tightness of binding of the hog kidney binder factor with PGA and 5CH3 FH4 (hog kidney binder factor [3]): approximately equal

competition for PGA binding sites (hog kidney folate binder): high degree of competition
Molecule: Nc1nc2c(c(=O)[nH]1)NC(CN(C=O)c1ccc(C(=O)N[C@@H](CCC(=O)O)C(=O)O)cc1)CN2 (stereo partly shown) [N-10, formyltetrahydrofolic acid]

Molecule: OCCS [2-mercaptoethanol]
effect on the binding reaction (hog kidney binder factor [1]; concentrations of 10^-^7 to 10^-^1 M): no effect

Molecule: c1cnc2c(c1)ccc1cccnc12 [o-phenanthroline]
effect on the binding reaction (hog kidney binder factor [1]; concentrations up to 2.0 × 10^-^6 M): no effect

Molecule: O=C(O)CC(O)(CC(=O)O)C(=O)O [citrate]
effect on binding at any pH (hog kidney binder factor [1]; 10 mM): No effect

B1: RNase: RNase (Worthington) (protein, UniProt P61823 27-150, looked up)
Ribonuclease pancreatic: KETAAAKFERQHMDSSTSAASSSNYCNQMMKSRNLTKDRCKPVNTFVHESLADVQAVCSQKNVACKNGQTNCYQSYSTMSITDCRETGSSKYPNCAYKTTQANKHIIVACEGNPYVPVHFDASV
effect of preincubation on binding of 3H-PGA (hog kidney binder factor [1]; 2 micrograms per ml, 30 minutes at 37°C): no effect

B2: trypsin: solution of trypsin (protein, UniProt P00760 24-246, looked up)
Serine protease 1: IVGGYTCGANTVPYQVSLNSGYHFCGGSLINSQWVVSAAHCYKSGIQVRLGEDNINVVEGNEQFISASKSIVHPSYNSNTLNNDIMLIKLKSAASLNSRVASISLPTSCASAGTQCLISGWGNTKSSGTSYPDVLKCLKAPILSDSSCKSAYPGQITSNMFCAGYLEGGKDSCQGDSGGPVVCSGKLQGIVSWGSGCAQKNKPGVYTKVCNYVSWIKQTIASN
inactivation of other binder factors by trypsin (All other binder factors): inactivated | effect of preincubation with trypsin on hog binder factor (hog kidney binder factor [1]; 1.0 ml trypsin solution, 30 minutes): completely inactivated
